Patent US20240124466A1, “COMPOUNDS AND USE THEREOF FOR TREATMENT OF NEURODEGENERATIVE, DEGENERATIVE AND METABOLIC DISORDERS” (VOVA IDA THERAPEUTICS, INC., priority 2020, published 2024)
Several values for one entry are separate records, joined by “and”; a condition that tells them apart may be missing. Identical values can stand only once. Like-named read-outs stand apart in the source and are kept apart here.

Legend:
[1] = tested on: PK1 neuroblastoma cells exposed to TPrP; conditions: for EC50: read-out: TPrP EC50; for toxic at cc (concentration above which compound is toxic): mouse
[2] = tested on: PK1 neuroblastoma cells exposed to TPrP; test: cells; conditions: Neuroblastoma cell, 96 h, read-out: TPrP EC50

Compound	EC50 [1]	EC50 [2] [µM]	toxic at cc (concentration above which compound is toxic) [1]	protection at 5 nM [1]
Cc1ccc(-c2nnc3c4ccccc4c(C)nn23)cc1S(=O)(=O)N1CCOCC1 [SR-843]	0.02 µM and 0.025 µM and 0.03 µM	0.015		
Cc1ccc(-c2nnc(-c3ccc(N(C)C)cc3)[nH]2)cc1S(=O)(=O)N1CCOCC1 [SR-28124, N,N-dimethyl-4-(5-(4-methyl-3-(morpholinosulfonyl)phenyl)-4H-1,2,4-triazol-3-yl)aniline]		0.012	12 nM (but toxic at cc >135 nM)	
Cc1ccc(-c2ccnc(-c3ccncc3)c2)cc1S(=O)(=O)N1CCOCC1 [SR-29204, 4-((5-([2,4′-Bipyridin]-4-yl)-2-methylphenyl)sulfonyl)morpholine]		< 0.005		<5 nM (100% protection at 5 nM)
Cc1ccc(-c2nnc(-c3ccccc3)[nH]2)cc1S(=O)(=O)N1CCOCC1 [SR-25604, 4-((2-Methyl-5-(5-phenyl-4H-1,2,4-triazol-3-yl)phenyl)sulfonyl)morpholine]	0.03 µM and 0.04 µM	0.035		
Cc1ccc(-c2nnc(-c3ccc([N+](=O)[O-])cc3)[nH]2)cc1S(=O)(=O)N1CCOCC1 [SR-29045, 4-((2-Methyl-5-(5-(4-nitrophenyl)-4H-1,2,4-triazol-3-yl)phenyl)sulfonyl) morpholine]		0.005	5 nM (but toxic at cc >5 nM)	
Cc1cc(F)c(-c2ccnc(Cl)c2)cc1S(=O)(=O)N1CCN(CCO)CC1 [SR-35015, 2-(4-((5-(2-Chloropyridin-4-yl)-4-fluoro-2-methylphenyl)sulfonyl)piperazin-1-yl)ethan-1-ol]		0.05		
O=S(=O)(c1cc(-c2nnc(-c3ccccc3)[nH]2)ccc1C1CC1)N1CCOCC1 [SR-29784, 4-((2-Cyclopropyl-5-(5-phenyl-4H-1,2,4-triazol-3-yl)phenyl)sulfonyl) morpholine]		0.6		
Cc1ccc(-c2nnc(-c3ccccc3)[nH]2)cc1S(=O)(=O)N1CCC(O)CC1 [SR-32045, 1-((2-Methyl-5-(5-phenyl-4H-1,2,4-triazol-3-yl)phenyl)sulfonyl)piperidin-4-ol]		> 1.5		
